Experiments:
[1] = Specific surface area (SSA) by BET; format: physicochemical; conditions: N2 adsorption
Method: As used herein, the ten “SSA (m^2/g)” refers to specific surface area (SSA) measured in square meters (m^2) per gram (g). SSA was measured by BET according to the method described in Example 4.
Specific Surface Area (SSA) was analyzed by BET on a surface area analyzer (Gemini 2375™ from Micromeritics Instrument Corp.). […] Each sample was filled into a glass tube and “degassed” at 30° C. for 1 h under continuous N2 (g) flow in order to remove all loosely bound molecules on the external surface and from potential channels in the material. Simultaneously, the saturation pressure for the liquid nitrogen used was determined. After weighing the degassed samples, the degassed samples were inserted into the measuring position at −196° C. (boiling point for liquid nitrogen), evacuated and then exposed to a range of partial pressures basically covering the whole range from almost zero to close to 1 under adsorption mode. The lower pressures were used for SSA determination. Higher pressures were used for potential micro pore determination. In order to ascribe the right amount of nitrogen to the substances, the free volume in the tubes was measured with helium gas prior to nitrogen adsorption. The appropriate thickness values for the adsorbed layer (above the point where no absorption took place in micro pores anymore) was determined from a t-plot and subsequently used to correct the calculation by separating the adsorbed nitrogen molecules into either absorbed into potential pore like structures (the “micro pore volume”) or adsorbed onto actual external surface.

[2] = Particle size distribution (PSD) by LALLS; format: physicochemical; conditions: for Dx (10)/μm: 10th percentile of particle size, paraffin oil dispersion; for Dx (50)/μm: 50th percentile of particle size; for Dx (90)/μm: 90th percentile of particle size; for >100 μm (%): percentage of particles greater than 100 μm; for <2 μm (%): percentage of particles less than 2 μm
Excerpt: As used herein, the term “Dx(10)/μm” refers to the 10th percentile of particle size (D10) measured in micrometers (μm). As used herein, the terms “Dx(50)/μm” or “median particle size” refer to the 50th percentile particle size (D50). As used herein, the term “Dx(90)/μm” refers to the 90th percentile of particle size (D90).
As used herein, the term “<2 μm (%)” refers to the percentage (%) of particles that are less than 2 μm. As used herein, the term “>100 μm (%)” refers to the percentage (%) of particles that are greater than 100 μm. As used herein, the percentage of particles refers to the percentage based on the population, or number, of particles.
The sample dispersion medium was paraffin oil. […] This was repeated until a stable reading was obtained.
The PSD measurements were done using the following settings: background measurement time, 20 seconds(s); sample measurement time, 20 s; dispersant refractive index, 1.45; particle refractive index, N/A (Fraunhofer), absorption, N/A (Fraunhofer); stirrer speed, 2500 rpm; analysis model: general purpose.

[3] = Stability of crystalline particles after forced degradation at 40° C. and 75% relative humidity (HPLC impurities); format: physicochemical; conditions: listed as A-2
Method: Stability analysis was performed on crystalline particles after forced degradation at 40° C. and 75% relative humidity over 3 days.

[4] = Crystallinity by X-ray powder diffraction (XRPD); format: physicochemical; conditions: AREAcryst/AREAtotal*100, listed as A-2
Method: Crystallinity was analyzed by X-ray powder diffraction (XRPD) using a Cu-anode (45 kV/40 mA), a Kα-1 monochromator and silicon-based position-sensitive 1D detector (Malvern Panalytical, X'Celerator™). The 2-theta range was 2-35° using a scan speed of 0.02°/s and a step size of 0.017°. Slow spinning sample holders were used. […] Each sample was smeared out using a Teflon bar, producing a flat powdered surface on zero background wafers of silicon (Si). The measurements were performed using a programmable incident divergence slit.
The crystallinity was evaluated using Panalytical HighScore Plus™ software (The HighScore suite; T. Degen, M. Sadki, E. Bron, U. König, G. Nénert; Powder Diffraction, Volume 29, Supplement S2, December 2014, pp S13-S18). This method is based on the following steps: 1) Calculation of the net area of the signals from the crystalline part of the sample. This area is defined as “AREAcryst.” 2) Calculation of the net total area, that is, area from the amorphous “humps” plus the net peak area from step 1. This area is defined as “AREAtotal.” In the calculation of above areas, an automatic correction of the background is made by using data collected for an empty sample holder. 3) The percent crystallinity of the sample is calculated as: (AREAcryst/AREAtotal)*100.
XRPD crystallinity results for each batch are reported Table 1.

[5] = isolated solid after 5 g lab-scale Process C crystallization
Method: Purity was analyzed by reverse-phase high-performance liquid chromatography (HLPC) using Agilent® 1100 series HPLC system and a reversed-phase column (Aquasil C18, 4.6×250 mm, 5 μm) at 25°, with the absorbance detector set to 242 or 301 nm. […] The amount of BC-TTM and impurities in the sample solution was determined by the regression line and the area of the standard peaks in the sample chromatogram.
(§1) Each mixture was then transferred to a 250 mL lab reactor via a series of 0.45 and 0.22 μm HPLC filters for polish filtration, and 2×1 mL water was used for rinsing (total amount water added: 19 mL, which gives an ethanol amount of 76 mL for an ethanol/water end-ratio of 80/20). After heating of the mixture to correct jacket temperature (35° C., 45° C., 50° C. or 55° C.), ethanol (76 mL) was charged for 1, 2.5 or 4 hours. A syringe pump connected to a 50-mL plastic syringe was used for the charging. Linear cooling profiles were then applied and all examples were cooled at a rate of 0.333° C./min down to 15° C. All mixtures were stirred for an additional 10 minutes at 15° C. before isolation of the solid on a P3 glass filter funnel. In example 8, the same conditions as described above were used, but the speed of the stirrer of the lab reactor was doubled. In example 10, the same conditions as described above were used, but a type different stirrer was used that increased the mass transfer in the lab reactor.

[6] = 5 g lab-scale Process C crystallization; for D10 (μm) / D50 (μm) / D90 (μm): ethanol charge time and temperature vary per example; for >100 (%): particles greater than 100 μm; for <2 (%): particles less than 2 μm; for D90/D50: ratio of D90 to D50
Method: Particle size distribution (PSD) was analyzed by LALLS on a commercial laser particle size analyzer (Malvern Instruments Ltd. Mastersizer 3000™) instrument, equipped with a 300 mm reverse Fourier lens with a small volume automated liquid sample dispersion unit (Malvern, Hydro MV™). The sample dispersion medium was paraffin oil. Samples taken from each of the batches were analyzed sequentially. Each sample was introduced directly into the small volume sample dispersion unit to study the disaggregation under influence of stirring only. Thereafter sonication was applied at low power (20%) in 60 seconds. This was repeated until a stable reading was obtained.
as §1

With “bis-choline tetrathiomolybdate [Batch A-1]” the “SSA (m^2/g)” value ([1]; listed as A-1) was 0.52 m^2/g, the “Dx (10)/μm” value ([2]; listed as A-1) was 10.3 μm and the “Dx (50)/μm” value ([2]; listed as A-1) was 59.4 μm. For the same substance, the “Dx (90)/μm” value ([2]; listed as A-1) was 503 μm, the “>100 μm (%)” value ([2]; listed as A-1) was 42.1% and the “<2 μm (%)” value ([2]; listed as A-1) was 2%.

With “bis-choline tetrathiomolybdate [Batch A-2]” the “SSA (m^2/g)” value ([1]; listed as A-2) was 0.26 m^2/g, the “Mo2S6O2 dimer (area %)” value ([3]; Day 3, 40° C. / 75% RH) was 0.09 area % and the “TM2 (area %)” value ([3]; Day 3, 40° C. / 75% RH) was 2.38 area %. The “TM3 (area %)” value ([3]; Day 3, 40° C. / 75% RH) was 2.78 area %, the “Total impurities (area %)” value ([3]; Day 3, 40° C. / 75% RH) was 5.54 area % and the “TM2 (area %)” value ([3]; Initial) was 0.29 area %. The “TM3 (area %)” value ([3]; Initial) was 2.04 area %, the “Total impurities (area %)” value ([3]; Initial) was 2.34 area % and the “Dx (10)/μm” value ([2]; listed as A-2) was 25.5 μm. For the same substance, the “Dx (50)/μm” value ([2]; listed as A-2) was 86.6 μm, the “Dx (90)/μm” value ([2]; listed as A-2) was 442.0 μm and the “>100 μm (%)” value ([2]; listed as A-2) was 46.8%. The “<2 μm (%)” value ([2]; listed as A-2) was 0.0% and the “Estimated Crystallinity (%)” value [4] was 86%.

For “bis-choline tetrathiomolybdate [Batch C-3]”, the “SSA (m^2/g)” value ([1]; listed as C-3) was 0.12 m^2/g, the “Dx (10)/μm” value ([2]; listed as C-3) was 25.7 μm and the “Dx (50)/μm” value ([2]; listed as C-3) was 52.9 μm. The “Dx (90)/μm” value ([2]; listed as C-3) was 97.7 μm, the “>100 μm (%)” value ([2]; listed as C-3) was 9.2% and the “<2 μm (%)” value ([2]; listed as C-3) was 1.0%.

In the case of “bis-choline tetrathiomolybdate [compound 1]”, the “TM2 (% w/w)” value [5] is reported as less than 0.05 % w/w, the “TM3 (% w/w)” value [5] is reported as 0.18 % w/w and the “Total impurities (% w/w)” value [5] is reported as 0.18 % w/w. The “D10 (μm)” value [6] was 21 μm, the “D50 (μm)” value [6] was 45 μm and the “D90 (μm)” value [6] was 77 μm. The “>100 (%)” value [6] was 1.4%, the “<2 (%)” value [6] was 1.3% and the D90/D50 [6] was 1.7.

With “bis-choline tetrathiomolybdate [compound 2]” the “TM2 (% w/w)” value [5] was 0.13 % w/w, the “TM3 (% w/w)” value [5] was 0.45 % w/w and the “Total impurities (% w/w)” value [5] was 0.57 % w/w. For the same substance, the “D10 (μm)” value [6] was 25 μm, the “D50 (μm)” value [6] was 46 μm and the “D90 (μm)” value [6] was 79 μm. The “>100 (%)” value [6] was 1.9%, the “<2 (%)” value [6] was 1.4% and the D90/D50 [6] was 1.7.

For “bis-choline tetrathiomolybdate [compound 3]”, the “TM2 (% w/w)” value [5] was less than 0.05 % w/w, the “TM3 (% w/w)” value [5] was 0.14 % w/w and the “Total impurities (% w/w)” value [5] was 0.14 % w/w. For the same substance, the “D10 (μm)” value [6] was 37 μm, the “D50 (μm)” value [6] was 79 μm and the “D90 (μm)” value [6] was 135 μm. For the same substance, the “>100 (%)” value [6] was 30%, the “<2 (%)” value [6] was 0.4% and the D90/D50 [6] was 1.7.

With “bis-choline tetrathiomolybdate [compound 4]” the “TM2 (% w/w)” value [5] was 0.19 % w/w, the “TM3 (% w/w)” value [5] was 0.46 % w/w and the “Total impurities (% w/w)” value [5] was 0.70 % w/w. For the same substance, the “D10 (μm)” value [6] was 33 μm, the “D50 (μm)” value [6] was 56 μm and the “D90 (μm)” value [6] was 92 μm. The “>100 (%)” value [6] was 5.8%, the “<2 (%)” value [6] was 0.8% and the D90/D50 [6] was 1.6.

For “bis-choline tetrathiomolybdate [compound 5]”, the “TM2 (% w/w)” value [5] was less than 0.05 % w/w, the “TM3 (% w/w)” value [5] was 0.18 % w/w and the “Total impurities (% w/w)” value [5] was 0.18 % w/w. For the same substance, the “D10 (μm)” value [6] was 38 μm, the “D50 (μm)” value [6] was 80 μm and the “D90 (μm)” value [6] was 136 μm. The “>100 (%)” value [6] was 31%, the “<2 (%)” value [6] was 0.0% and the D90/D50 [6] was 1.7.

With “bis-choline tetrathiomolybdate [compound 6]” the “TM2 (% w/w)” value [5] was less than 0.05 % w/w, the “TM3 (% w/w)” value [5] was 0.19 % w/w and the “Total impurities (% w/w)” value [5] was 0.19 % w/w. The “D10 (μm)” value [6] was 42 μm, the “D50 (μm)” value [6] was 87 μm and the “D90 (μm)” value [6] was 148 μm. The “>100 (%)” value [6] was 38%, the “<2 (%)” value [6] was 0.0% and the D90/D50 [6] was 1.7.

For “bis-choline tetrathiomolybdate [compound 7]”, the “TM2 (% w/w)” value [5] was less than 0.05 % w/w, the “TM3 (% w/w)” value [5] was 0.18 % w/w and the “Total impurities (% w/w)” value [5] was 0.18 % w/w. For the same substance, the “D10 (μm)” value [6] was 41 μm, the “D50 (μm)” value [6] was 85 μm and the “D90 (μm)” value [6] was 143 μm. The “>100 (%)” value [6] was 36%, the “<2 (%)” value [6] was 0.0% and the D90/D50 [6] was 1.7.

For “bis-choline tetrathiomolybdate [compound 8]”, the “TM2 (% w/w)” value [5] was less than 0.05 % w/w, the “TM3 (% w/w)” value [5] was 0.18 % w/w and the “Total impurities (% w/w)” value [5] was 0.18 % w/w. The “D10 (μm)” value [6] was 57 μm, the “D50 (μm)” value [6] was 102 μm and the “D90 (μm)” value [6] was 164 μm. The “>100 (%)” value [6] was 52%, the “<2 (%)” value [6] was 0.0% and the D90/D50 [6] was 1.6.

For “bis-choline tetrathiomolybdate [compound 9]”, the “TM2 (% w/w)” value [5] was 0.12 % w/w, the “TM3 (% w/w)” value [5] was 0.25 % w/w and the “Total impurities (% w/w)” value [5] was 0.37 % w/w. For the same substance, the “D10 (μm)” value [6] was 33 μm, the “D50 (μm)” value [6] was 61 μm and the “D90 (μm)” value [6] was 101 μm. For the same substance, the “>100 (%)” value [6] was 11%, the “<2 (%)” value [6] was 1.0% and the D90/D50 [6] was 1.7.

In the case of “bis-choline tetrathiomolybdate [compound 10]”, the “TM2 (% w/w)” value [5] is reported as less than 0.05% w/w, the “TM3 (% w/w)” value [5] is reported as 0.16 % w/w and the “Total impurities (% w/w)” value [5] is reported as 0.16 % w/w. For the same substance, the “D10 (μm)” value [6] was 50 μm, the “D50 (μm)” value [6] was 95 μm and the “D90 (μm)” value [6] was 161 μm. The “>100 (%)” value [6] was 45%, the “<2 (%)” value [6] was 0.0% and the D90/D50 [6] was 1.7.
